According to PubChem BioAssay AID2775 (Southern Research Specialized Biocontainment Screening …, 2010):
pEC50: −log10 of the molar value. Active and inactive are the calls of the source. No rule for the calls is given here.

Tests used:
[1] = SV40 cytopathic effect inhibition and cytotoxicity, SV40 T antigen inhibitor project, BSC cells, set 2 (AID 2775); settings: BSC cells, SV40 CPE inhibition and viability; for viability: BSC cell viability, at 100 µM, stronger effect = lower value
[2] = tested on: BSC cells, SV40 CPE inhibition and viability; assay: as above; settings: for pEC50: measured here: SV40 T antigen ATPase

Structure (SMILES)	outcome [1]	viability [1] [%]	CC50 [2]	pEC50 [2]
O=C(c1cccn1-c1ccccc1)c1cccn1-c1ccccc1	inactive	110	–	–
COc1cccc(-n2nnnc2C(Cl)(Cl)c2nnnn2-c2cccc(OC)c2)c1	inactive	99.5	–	–
O=C(Cn1sc2ccccc2c1=O)Nc1ccc(F)cc1	–	30.5	59 µM (inactive)	4.26
O=C(Cn1sc2ccccc2c1=O)NCc1ccccc1	–	22.9	58 µM (inactive)	4.50
O=C(Cn1sc2ccccc2c1=O)Nc1ccc(Cl)cc1	inactive	83	–	–
O=C(Cn1sc2ccccc2c1=O)Nc1ccccc1	–	24	61 µM (inactive)	4.46
O=C(Cn1sc2ccccc2c1=O)Nc1cccc(C(F)(F)F)c1	inactive	87.5	–	–
COc1ccc(NC(=O)Cn2sc3ccccc3c2=O)cc1	–	24.9	73 µM (inactive)	4.46
Cc1ccc(NC(=O)Cn2sc3ccccc3c2=O)cc1	–	22	57 µM (inactive)	4.28
COc1cccc(NC(=O)Cn2sc3ccccc3c2=O)c1	–	52.5	57 µM (inactive)	4.16
